Measured values published in US10662146B2, “Prodrugs of fencamfamine” (Praxis Bioresearch, LLC, priority 2015, dated 2020).
“And” between values parts separate entries of the source, which are not always exact repeats. Identical values can stand only once. Like-named read-outs stand apart in the source and are kept apart here.

Experiment: Single dose intravenous PK study in male Sprague Dawley rats (plasma by LC-MS/MS)
Assay type: in vivo
Conditions: for AUC(0-inf): read-out: AUCinf of PRX-P5-006; for AUC(0-t): read-out: AUClast of PRX-P5-006; for clearance: read-out: CL of PRX-P5-006; for AUC: read-out: IV PK Parameters AUC, Prodrug; for C0: read-out: C0 of PRX-P5-006
Experimental: We describe here PK results of prodrugs of PRX-002 (−) or (+) isomers. All doses of prodrugs were administered such that they were equivalent to 5 mg/kg of PRX-002 (−) or (+) for oral studies and 2 mg/kg PRX-002 (−) or (+) for intravenous studies in male Sprague-Dawley (MSD) rats. Higher doses of up to 10 or 15 mg/kg [again equivalent to PRX-002 (−)] were used in some studies (as specified)]. Formulation preparation, dose administration and time of sample collection was as follows.
(§1) Adult male Sprague Dawley Rats aged 8-10 weeks were used for the study. Animals were administered the test item by Intravenous bolus route with a dose of 2 mg/kg body weight at dose volume of 5.0 mL/kg body weight. Under mild isoflurane anesthesia, blood specimens were collected by retro-orbital puncture method using capillary tubes into pre-labeled tubes containing anticoagulant (K2EDTA-2 mg/mL blood) during the next 24 hours of post dose as mentioned in below table. For blood sampling at multiple time points, right and left eyes were used alternatively for blood collection. Collected blood specimens were centrifuged at 4000 rpm, 4° C. for 10 minutes and plasma were separated and stored at −80° C. until analysis.
Blood was collected as outlined in Table 39.2 (IV).
Test item PRX-P4-003 was weighed and transferred to a graduated tube. Then 600 μL of PEG 400 (v/v) was added and vortex mixed thoroughly until the test item was completely dissolved. Then 1.800 mL of Hydroxypropyl-β-cyclodextrin (HPβCD, 50% w/v) was added and vortex mixed thoroughly. The final volume was then made up to 3.600 mL with sterile water for injection (SWFI, v/v) with final formulation strength of 5.16 mgA/mL. […] This formulation was freshly prepared before the administration to animals.
as §1, with “administered with a PRX-P4-003” for “administered the test item”, “of 10” for “of 2”, “of 5” for “of 5.0”
Test item PRX-P5-006 was weighed and transferred to a graduated tube. Then 500 μL of DMSO (v/v) was added vortex mixed thoroughly until the test item was completely dissolved. Then 4000 μL of Hydroxypropyl-β-cyclodextrin (HPβCD, 50% w/v) was added and vortex mixed thoroughly. Then 2500 μL of PEG 400 (v/v) was added and vortex mixed thoroughly. The final volume was then made up to 10000 μL with sterile water for injection (SWFI, v/v) with final formulation strength of 3.97 mg/mL. […] This formulation was freshly prepared before the administration to animals.
as §1, with “administered with a PRX-P5-006” for “administered the test item”, “of 15” for “of 2”, “of 10” for “of 5.0”
The plasma concentrations of fencamfamine were measured by LC-MS/MS over time. […] The release of fencamfamine from the prodrugs varied depending on the chain length of the fatty acid linkers attached to fencamfamine. […]

[1] = PRX-P5-006 IV 2 mg/kg b.w., individual animals, 2 mg/kg
[2] = PRX-P5-006 IV 2 mg/kg, mean, 2 mg/kg
[3] = male, Sprague Dawley, rat, plasma, iv, 2 mg/kg, PRX-P5-006 IV 2 mg/kg, mean
[4] = male, Sprague-Dawley, rat, plasma, iv, 2 mg/kg, PRX-P5-006 IV 2 mg/kg b.w., individual animals

Compound: CCCCCCCCCCCCCCCCCC(=O)OC(C)OC(=O)N(CC)C1C2CCC(C2)C1c1ccccc1 (single isomer, unassigned) [PRX-P5-006, N-(1-Octadecanoyloxyethoxycarbonyl)-(−)-N-ethyl-3-phenylbicyclo[2.2.1]heptan-2-amine]
- AUC% extrap of PRX-P5-006 [1]: 5.16% and 3.49% and 11.16%
- AUCinf of PRX-P5-006 [1]: 3977.39 ng·h/mL and 4119.23 ng·h/mL
- AUClast of PRX-P5-006 [1]: 3838.58 ng·h/mL and 3659.58 ng·h/mL
- C0 of PRX-P5-006 [1]: 32467.12 ng/mL and 21202.31 ng/mL
- CL of PRX-P5-006 [1]: 8.38 mL/min/kg and 8.09 mL/min/kg
- Cmax of PRX-P5-006 [1]: 8662.3 ng/mL and 7404.71 ng/mL
- MRTlast of PRX-P5-006 [1]: 2.7 h and 0.93 h and 3.31 h
- T1/2 of PRX-P5-006 [1]: 7.54 h and 2.06 h and 9.32 h
- Vss of PRX-P5-006 [1]: 1.56 L/kg and 0.61 L/kg and 3.46 L/kg
- AUC% extrap of PRX-P5-006 [2]: 6.602 ± 4.0330% and 6.602%
- T1/2 of PRX-P5-006 [2]: 6.304 h
- Level of intact PRX-P5-006 in plasma, IV versus oral (PRX-P5-006 administered IV (FIGS. 5A, 5B)): Much higher level of intact PRX-P5-006
- Cmax (male, Sprague Dawley, rat, plasma, iv, 2 mg/kg, IV 2 mg/kg [equivalent to PRX-002 (−)], analyte: prodrug in plasma, mean, read-out: IV PK Parameters Cmax, Prodrug): 707 ± 500 ng/mL
- AUC(0-inf) [3]: 4560 ± 894 ng·h/mL
- AUC(0-t) [3]: 4270 ± 902 ng·h/mL
- clearance [3]: 7.48 ± 1.32 mL/min/kg
- Vd (male, Sprague Dawley, rat, plasma, iv, 2 mg/kg, PRX-P5-006 IV 2 mg/kg, mean, read-out: Vss of PRX-P5-006): 1.88 ± 1.45 L/kg
- Cmax (male, Sprague Dawley, rat, plasma, iv, 15 mg/kg, IV 15 mg/kg (footnote *), analyte: prodrug in plasma, mean, read-out: IV PK Parameters Cmax, Prodrug): 16400 ± 7100 ng/mL
- AUC (male, Sprague Dawley, rat, IV 2 mg/kg [equivalent to PRX-002 (−)], analyte: prodrug in plasma, mean): 410 ± 301 ng·h/mL
- Tmax (male, Sprague Dawley, rat, IV 2 mg/kg [equivalent to PRX-002 (−)], analyte: prodrug in plasma, mean, read-out: IV PK Parameters Tmax, Prodrug): 4.8 min
- AUC (male, Sprague Dawley, rat, IV 15 mg/kg (footnote *), analyte: prodrug in plasma, mean): 8060 ± 1760 ng·h/mL
- Tmax (male, Sprague Dawley, rat, IV 15 mg/kg (footnote *), analyte: prodrug in plasma, mean, read-out: IV PK Parameters Tmax, Prodrug): 4.8 min
- AUC(0-inf) [4]: 5590 ng·h/mL
- AUC(0-t) [4]: 5300 ng·h/mL
- C0 [4]: 36200 ng/mL
- clearance [4]: 5.96 mL/min/kg
- Cmax (male, Sprague-Dawley, rat, plasma, iv, 2 mg/kg, PRX-P5-006 IV 2 mg/kg b.w., individual animals, read-out: Cmax of PRX-P5-006): 11200 ng/mL
- C0 (male, Sprague-Dawley, rat, plasma, iv, 2 mg/kg, PRX-P5-006 IV 2 mg/kg, mean): 30000 ng/mL
- Cmax (male, Sprague-Dawley, rat, plasma, iv, 2 mg/kg, PRX-P5-006 IV 2 mg/kg, mean, read-out: Cmax of PRX-P5-006): 9100 ± 1950 ng/mL
- MRT last (male, Sprague-Dawley, rat, plasma, iv, 2 mg/kg, PRX-P5-006 IV 2 mg/kg, mean, read-out: MRTlast of PRX-P5-006): 2.31 ± 1.24 h
- half-life (male, Sprague-Dawley, rat, plasma, iv, 2 mg/kg, PRX-P5-006 IV 2 mg/kg, mean, read-out: T1/2 of PRX-P5-006 (converted)): 6.3 ± 3.79 h
- Tmax (male, Sprague-Dawley, rat, plasma, PRX-P5-006 IV 2 mg/kg, mean, read-out: Tmax of PRX-P5-006): 4.8 min

Compound: CCCCCCCCCCCCCCCCCC(=O)OC(C)OC(=O)N(CC)C1C2CCC(C2)C1c1ccccc1 (single isomer, unassigned) [PRX-P5-011, N-(1-Octadecanoyloxyethoxycarbonyl)-(+)-N-ethyl-3-phenylbicyclo[2.2.1]heptan-2-amine]
- Plasma concentration of PRX-P5-011 (PRX-P5-011 IV 2 mg/kg b.w., 0.08 h, individual animals, 2 mg/kg): 114.77 ng/mL and 37.09 ng/mL and 179.14 ng/mL
- Plasma concentration of PRX-P5-011 (PRX-P5-011 IV 2 mg/kg b.w., 0.25 h, individual animals, 2 mg/kg): 56.47 ng/mL and 17.98 ng/mL and 101.04 ng/mL
- Plasma concentration of PRX-P5-011 (PRX-P5-011 IV 2 mg/kg b.w., 0.50 h, individual animals): 0.00 ng/mL
- Plasma concentration of PRX-P5-011 (PRX-P5-011 IV 2 mg/kg b.w., 1.00 h, individual animals): 0.00 ng/mL
- Plasma concentration of PRX-P5-011 (PRX-P5-011 IV 2 mg/kg b.w., 2.00 h, individual animals): 0.00 ng/mL
- Plasma concentration of PRX-P5-011 (PRX-P5-011 IV 2 mg/kg b.w., 4.00 h, individual animals): 0.00 ng/mL
- Plasma concentration of PRX-P5-011 (PRX-P5-011 IV 2 mg/kg b.w., 6.00 h, individual animals): 0.00 ng/mL
- Plasma concentration of PRX-P5-011 (PRX-P5-011 IV 2 mg/kg b.w., 24.00 h, individual animals): 0.00 ng/mL
- concentration at 0.08 h (male, Sprague-Dawley, rat, plasma, iv, 2 mg/kg, PRX-P5-011 IV 2 mg/kg b.w., 0.08 h, mean): 110 ng/mL
- concentration at 0.25 h (male, Sprague-Dawley, rat, plasma, iv, 2 mg/kg, PRX-P5-011 IV 2 mg/kg b.w., 0.25 h, mean): 58.5 ng/mL
- concentration at 0.5 h (male, Sprague-Dawley, rat, plasma, iv, 2 mg/kg, PRX-P5-011 IV 2 mg/kg b.w., 0.50 h, individual animals): 0 ng/mL
- concentration at 0.5 h (male, Sprague-Dawley, rat, plasma, iv, 2 mg/kg, PRX-P5-011 IV 2 mg/kg b.w., 0.50 h, mean): 0 ng/mL
- concentration at 1 h (male, Sprague-Dawley, rat, plasma, iv, 2 mg/kg, PRX-P5-011 IV 2 mg/kg b.w., 1.00 h, individual animals): 0 ng/mL
- concentration at 1 h (male, Sprague-Dawley, rat, plasma, iv, 2 mg/kg, PRX-P5-011 IV 2 mg/kg b.w., 1.00 h, mean): 0 ng/mL
- concentration at 2 h (male, Sprague-Dawley, rat, plasma, iv, 2 mg/kg, PRX-P5-011 IV 2 mg/kg b.w., 2.00 h, individual animals): 0 ng/mL
- concentration at 2 h (male, Sprague-Dawley, rat, plasma, iv, 2 mg/kg, PRX-P5-011 IV 2 mg/kg b.w., 2.00 h, mean): 0 ng/mL
- concentration at 4 h (male, Sprague-Dawley, rat, plasma, iv, 2 mg/kg, PRX-P5-011 IV 2 mg/kg b.w., 4.00 h, individual animals): 0 ng/mL
- concentration at 4 h (male, Sprague-Dawley, rat, plasma, iv, 2 mg/kg, PRX-P5-011 IV 2 mg/kg b.w., 4.00 h, mean): 0 ng/mL
- concentration at 6 h (male, Sprague-Dawley, rat, plasma, iv, 2 mg/kg, PRX-P5-011 IV 2 mg/kg b.w., 6.00 h, individual animals): 0 ng/mL
- concentration at 6 h (male, Sprague-Dawley, rat, plasma, iv, 2 mg/kg, PRX-P5-011 IV 2 mg/kg b.w., 6.00 h, mean): 0 ng/mL
- concentration at 24 h (male, Sprague-Dawley, rat, plasma, iv, 2 mg/kg, PRX-P5-011 IV 2 mg/kg b.w., 24.00 h, individual animals): 0 ng/mL
- concentration at 24 h (male, Sprague-Dawley, rat, plasma, iv, 2 mg/kg, PRX-P5-011 IV 2 mg/kg b.w., 24.00 h, mean): 0 ng/mL
